We go through 3 compounds from patent publication US12440498B2 (priority 2020, dated 2025).

For one experiment, the system named is A/H1N1 virus. As to the kind of experiment: microbe, parasite or virus in culture. The class given is cell-based, influenza A virus. The note with it: Influenza A virus, H1N1, MDCK, read-out: IC50 baloxavir (active form).
For experiment [1], the system named is A/H1N1 I38T (I38T mutation on the PA subunit, baloxavir-resistant). It is filed as cell-based, influenza A virus.
Experiment [2] deals with influenza virus with M431I substitution in PB2. The note with it: cited from earlier work.

In the case of `O=C1c2c(O)c(=O)ccn2N([C@@H]2c3ccccc3SCc3c2ccc(F)c3F)[C@@H]2COCCN12` [baloxavir, baloxavir acid], the IC50 with A/H1N1 virus was 0.2 nM.
As to `COc1ccc([C@@H]2Sc3ccccc3N(CCN(C)C)C(=O)[C@@H]2OC(C)=O)cc1.Cl` [diltiazem], the “transepithelial resistance (TEER), integrity of infected epithelia” value in experiment [1] is reported as “remain stable”.
Regarding `O=C(O)[C@H]1C2CCC(CC2)[C@@H]1Nc1nc(-c2c[nH]c3ncc(F)cc23)ncc1F` [pimodivir], in experiment [2], the decrease in sensitivity result is “around 60 fold”.

Broadly, the IC50 is the point on the concentration scale where inhibition reaches its midpoint.
